Literature values, collected in US20140106008A1, “GLYCEROL COMPOSITIONS AND SOLUTIONS” (BIO-ENERGY INGREDIENTS LIMITED, priority 2011, published 2014).

System: exposed organisms
Details: aquatic toxicity

For `OCC(O)CO` [Glycerol, propane-1,2,3-triol], the “TLm96 value, concentration that will kill 50% of the exposed organisms in 96 hours” value is listed as “over 1000 mg/litre”.
